Assay results taken from patent publication US20250127890A1, “COMPOSITIONS AND METHODS FOR TREATING CORONAVIRUS INFECTIOUS DISEASE-19 (COVID-19)” (THE BOARD OF REGENTS OF THE UNIVERSITY OF OKLAHOMA, priority 2021, published 2025).
Where two headings read alike, the source gives them in different places.

Experiments:
[1] = tested on: SARS-CoV-2-infected Calu3 cells; type: cell-based; settings: DCLK1-IN-1 5 μM, tasquinimod 10 μM or both
SARS-CoV-2 [2] = type: cell-based
[3] = tested on: SARS-CoV-2 nucleocapsid and membrane proteins; assay: Phosphoproteomic analysis of viral proteins in infected Calu3 cells; type: cell-based
[4] = mice, cited from earlier work
[5] = tested on: SARS-CoV-2-infected Huh7-RFP-DCLK1 cells with normal human PBMCs; assay: Multiplex cytokine assay of spent supernatants from infected Huh7-RFP-DCLK1 / PBMC mixed cocultures; type: cell-based; settings: 5 μM, 48 h
Description: Tissue culture supernatants and sera were analyzed using a custom-made human Magnetic Luminex Assay Kit (LXSAHM-15; R&D Systems) for the following analytes: TNF-α, IFNα, IFNβ, IFNγ, IL-1β, IL-2, IL-4, IL-6, IL-8, IL-10, IL-17, CCL2, M-CSF, GM-CSF, and VEGF-A. Samples were processed in replicates and quantified using the BioPlex 200 System (Bio-Rad). The concentration of each analyte was expressed as pg/mg of total protein. Analyte levels in normal serum or control supernatants were set at 100% when compared to test samples.
To assess the effect of DCLK1 kinase on cytokine production during SARS-CoV-2 infection, we mixed infected Huh7-RFP-DCLK1 cells with normal human PBMCs in the presence of 5 μM DCLK1-IN-1 for 48 h. Spent supernatants were assayed for cytokines/chemokines/growth factors using a multiplex system. As with infected Calu3 cells, DCLK1-IN-1 blocked Spike (FIG. 8A, lane 2, Set 2). […] However, PBMCs were responsive to SARS-CoV-2-infected cells as indicated by increased secretion of TNF-α, IL-1β, IL-6, and IL-10 in spent media compared to uninfected cells (FIG. 8B). DCLK1-IN-1 treatment led to downregulation of cytokines involved in inflammation and viral response (TNF-α, IFNα, IFNγ, and IL-10; FIG. 8C). […] Since CCL2 participates in normal wound healing, an increase in this chemokine may contribute to tissue healing after viral clearance. […]

SARS-CoV-2 [6] = type: cell-based; remark: listed apart in the source
SARS-CoV-2 [7] = type: in vivo, K18-hACE2 mice; settings: 10 mg/kg i.p. daily for 4 days
SARS-CoV-2 [8] = assay: TCID50 titer of infectious SARS-CoV-2 particles in culture supernatants of infected Calu3 cells; type: cell-based; settings: treated vs untreated
Omicron B.1.1.529 virus = type: cell-based, SARS-CoV-2; settings: 5 μM and 10 μM, in comparison to vehicle-treated control
kinase domain of DCLK1 = biological target: T1, kinase domain of DCLK1 (Homo sapiens, UniProt O15075); settings: cited from earlier work
T1 sequence (O15075 390-647 limits assumed): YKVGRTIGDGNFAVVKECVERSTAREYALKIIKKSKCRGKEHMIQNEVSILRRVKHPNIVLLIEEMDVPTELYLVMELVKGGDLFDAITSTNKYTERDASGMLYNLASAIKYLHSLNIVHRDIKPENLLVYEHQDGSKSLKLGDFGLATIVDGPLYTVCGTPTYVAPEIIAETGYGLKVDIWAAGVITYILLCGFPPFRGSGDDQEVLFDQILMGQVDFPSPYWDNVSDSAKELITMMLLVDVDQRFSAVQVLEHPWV

[9] = tested on: SARS-CoV-2 infected Calu-3 lung cells; assay: Label-free quantitative proteomic analysis of SARS-CoV-2-infected Calu-3 lung cells; type: cell-based
SARS-CoV-2 [10] = assay: Western blot of viral proteins and DCLK1 in SARS-CoV-2-infected Calu3 lung cells; type: cell-based
GM-CSF = biological target: T2, GM-CSF (Homo sapiens, UniProt P04141); settings: clinical trial; cited from earlier work
T2 construct: host or cells: COVID-19 patients (endogenous GM-CSF)
T2 sequence (P04141 18-144): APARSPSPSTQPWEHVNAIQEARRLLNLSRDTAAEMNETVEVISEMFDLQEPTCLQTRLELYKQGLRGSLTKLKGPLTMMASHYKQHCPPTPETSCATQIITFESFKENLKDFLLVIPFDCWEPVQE

COc1cc(N2CCN(C)CC2)ccc1Nc1ncc2c(n1)N(C)c1ccccc1C(=O)N2CC(F)(F)F [DCLK1-IN-1]
active forms of caspase 1 and IL-1β [1]: downregulated | effect on Spike (SARS-CoV-2 [2]): blocked Spike | phosphorylation of five serine residues (S2, S176, S180, S201, and S202) of nucleocapsid protein ([3]; compared with untreated and vehicle-treated infected cells): significant decrease | phosphorylation of viral membrane protein (M) at S212, S213 and S214 ([3]; infected cells, phosphoproteomics): significantly reduced | adverse effects / body weight at MTD ([4]; 100 mg/kg): no adverse effects or loss of body weight | half-life [4]: 2.09 h | maximum tolerated dose (MTD) [4]: 100 mg/kg | CCL2 (MCP-1) [5]: increased expression | cytokines involved in inflammation and viral response (TNF-α, IFNα, IFNγ, and IL-10) [5]: downregulation | Spike by immunofluorescence (SARS-CoV-2 [6]): downregulation of Spike | Dclk1 and S100A9 in lung (confocal microscopy) (SARS-CoV-2 [7]): low expression | expression of Spike and nucleocapsid proteins in lung (Western blot) (SARS-CoV-2 [7]): reduced or absent | staining for Spike in lung (confocal microscopy) (SARS-CoV-2 [7]): rare or weak | lung histopathological features (H&E) (SARS-CoV-2 [7]; lungs collected on day 5): significantly improved | decrease in infectivity (TCID50) (SARS-CoV-2 [8]; 5 μM): 4 fold | decrease in infectivity (TCID50) (SARS-CoV-2 [8]; 10 μM): 10 fold | inhibition of Omicron virus production (Omicron B.1.1.529 virus): 80%-90% | Kd (kinase domain of DCLK1; binds the kinase domain of DCLK1): 109 nM | nucleocapsid protein abundance ([9]; infected Calu3, proteomics): not decreased | viral structural proteins (membrane and Spike) and accessory proteins (ORF7a, ORF8, and ORF9b) ([9]; infected Calu3, proteomics): significantly downregulated | 8 host proteins upregulated by SARS-CoV-2 (GSPT2, LGALS1, ENO2, H3C15, LXN, SAMD4B, SPTA1 and WDR75) ([9]; infected Calu3, proteomics, GSPT2, SAMD4B, WDR75 validated by Western blot): normalized | 21 cellular proteins downregulated by SARS-CoV-2 infection ([9]; several of these proteins, data not shown): restored to normal | loss of intracellular viral proteins (nucleocapsid and Spike) (SARS-CoV-2 [10]; 5 μM, infected Calu3, Western blot): ~65% | loss of intracellular viral proteins (nucleocapsid and Spike) (SARS-CoV-2 [10]; 10 μM, infected Calu3, Western blot): ~95% | DCLK1 protein levels (SARS-CoV-2 [10]; infected Calu3, Western blot): not significantly affected | reduction in intracellular viral proteins (nucleocapsid and Spike) (SARS-CoV-2 [10]; infected Calu3, Western blot, compared to untreated control): strong dose-response reduction

COc1cc(N2CCN(C)CC2)ccc1Nc1ncc2c(n1)N(C)c1ccc(C)cc1C(=O)N2CC(F)(F)F [DCLK1-NEG]
binding affinity (kinase domain of DCLK1; structural analog used as negative control): low binding affinity | effect on Spike (SARS-CoV-2 [10]): did not reduce Spike

COc1cccc2c1c(O)c(C(=O)N(C)c1ccc(C(F)(F)F)cc1)c(=O)n2C [tasquinimod]
active forms of caspase 1 and IL-1β [1]: downregulated

B1: lenzilumab: a GM-CSF inhibitor (antibody, chains of the INN, looked up, V domains shown)
VH: QVQLVQSGAEVKKPGASVKVSCKASGYSFTNYYIHWVRQAPGQRLEWMGWINAGNGNTKYSQKFQGRVTITRDTSASTAYMELSSLRSEDTAVYYCVRRQRFPYYFDYWGQGTLVTVSS
VL: EIVLTQSPATLSVSPGERATLSCRASQSVGTNVAWYQQKPGQAPRVLIYSTSSRATGITDRFSGSGSGTDFTLTISRLEPEDFAVYYCQQFNKSPLTFGGGTKVEIK
survival of COVID-19 patients (GM-CSF): significantly improved
